Measured values: ChEMBL document CHEMBL5442219

Key:
Conditions in all cases: Compound concentration 10 µM
[1] = biological target: T1, D(4) dopamine receptor (Homo sapiens) (UniProt P21917)
T1 sequence (whole entry): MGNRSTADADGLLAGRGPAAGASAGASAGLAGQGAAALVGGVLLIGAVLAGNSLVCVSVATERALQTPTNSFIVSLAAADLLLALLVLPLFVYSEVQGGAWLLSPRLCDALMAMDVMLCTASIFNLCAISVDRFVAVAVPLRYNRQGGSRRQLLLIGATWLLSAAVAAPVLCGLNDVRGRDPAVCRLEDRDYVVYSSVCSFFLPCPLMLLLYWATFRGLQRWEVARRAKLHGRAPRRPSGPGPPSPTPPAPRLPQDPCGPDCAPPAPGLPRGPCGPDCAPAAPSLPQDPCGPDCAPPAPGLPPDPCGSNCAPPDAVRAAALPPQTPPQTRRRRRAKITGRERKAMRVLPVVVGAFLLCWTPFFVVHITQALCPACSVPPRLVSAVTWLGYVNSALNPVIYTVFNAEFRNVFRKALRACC

[2] = biological target: Muscarinic acetylcholine receptor M3 (Homo sapiens) (UniProt P20309)
[3] = biological target: T2, Alpha-2C adrenergic receptor (Homo sapiens) (UniProt P18825)
T2 sequence (whole entry): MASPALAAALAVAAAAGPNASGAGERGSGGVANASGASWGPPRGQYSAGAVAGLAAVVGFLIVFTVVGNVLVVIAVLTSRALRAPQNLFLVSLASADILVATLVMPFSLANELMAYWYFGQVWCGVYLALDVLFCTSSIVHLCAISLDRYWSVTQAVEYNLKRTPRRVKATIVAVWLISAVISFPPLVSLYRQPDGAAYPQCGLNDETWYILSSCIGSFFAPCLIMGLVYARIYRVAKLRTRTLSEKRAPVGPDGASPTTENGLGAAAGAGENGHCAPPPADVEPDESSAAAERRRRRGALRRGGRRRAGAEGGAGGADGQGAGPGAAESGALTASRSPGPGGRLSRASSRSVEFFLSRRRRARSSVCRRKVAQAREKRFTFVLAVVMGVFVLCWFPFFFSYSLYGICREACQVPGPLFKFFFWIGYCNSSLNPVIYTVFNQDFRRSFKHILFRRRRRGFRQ

[4] = biological target: Sodium-dependent noradrenaline transporter (Homo sapiens) (UniProt P23975)
[5] = biological target: T3, Alpha-2B adrenergic receptor (Homo sapiens) (UniProt P18089)
T3 sequence (whole entry): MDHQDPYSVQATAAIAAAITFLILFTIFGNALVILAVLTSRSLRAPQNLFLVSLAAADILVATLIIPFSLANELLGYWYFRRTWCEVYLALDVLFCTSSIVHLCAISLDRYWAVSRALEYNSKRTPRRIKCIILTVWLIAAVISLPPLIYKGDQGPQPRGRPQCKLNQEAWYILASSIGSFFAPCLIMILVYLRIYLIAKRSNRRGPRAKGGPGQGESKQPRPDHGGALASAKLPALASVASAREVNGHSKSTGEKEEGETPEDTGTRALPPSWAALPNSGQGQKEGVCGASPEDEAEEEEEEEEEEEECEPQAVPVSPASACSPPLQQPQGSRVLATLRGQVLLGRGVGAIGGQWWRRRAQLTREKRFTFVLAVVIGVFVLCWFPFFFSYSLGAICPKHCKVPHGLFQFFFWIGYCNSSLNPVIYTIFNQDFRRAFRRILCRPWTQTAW

[6] = biological target: Translocator protein (Homo sapiens) (UniProt P30536)
[7] = biological target: Delta-type opioid receptor (Homo sapiens) (UniProt P41143)
[8] = biological target: Beta-1 adrenergic receptor (Homo sapiens) (UniProt P08588)
[9] = biological target: Histamine H4 receptor (Homo sapiens) (UniProt Q9H3N8)
[10] = biological target: Beta-2 adrenergic receptor (Homo sapiens) (UniProt P07550)
[11] = biological target: T4, Muscarinic acetylcholine receptor M5 (Homo sapiens) (UniProt P08912)
T4 sequence (whole entry): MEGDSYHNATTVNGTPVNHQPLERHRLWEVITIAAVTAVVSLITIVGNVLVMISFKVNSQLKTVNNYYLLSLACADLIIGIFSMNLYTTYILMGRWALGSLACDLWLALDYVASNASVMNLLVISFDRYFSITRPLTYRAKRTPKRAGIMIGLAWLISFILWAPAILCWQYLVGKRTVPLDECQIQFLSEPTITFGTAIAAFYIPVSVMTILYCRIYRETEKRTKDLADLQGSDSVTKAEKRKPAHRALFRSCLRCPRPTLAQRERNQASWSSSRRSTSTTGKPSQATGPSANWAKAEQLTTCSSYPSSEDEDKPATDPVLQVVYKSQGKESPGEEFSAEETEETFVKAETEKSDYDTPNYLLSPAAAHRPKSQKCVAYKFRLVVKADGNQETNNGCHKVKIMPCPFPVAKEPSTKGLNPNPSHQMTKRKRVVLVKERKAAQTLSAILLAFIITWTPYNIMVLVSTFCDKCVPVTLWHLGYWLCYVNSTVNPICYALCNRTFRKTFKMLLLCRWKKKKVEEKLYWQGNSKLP

[12] = biological target: T5, 5-hydroxytryptamine receptor 3A (Homo sapiens) (UniProt P46098)
T5 sequence (whole entry): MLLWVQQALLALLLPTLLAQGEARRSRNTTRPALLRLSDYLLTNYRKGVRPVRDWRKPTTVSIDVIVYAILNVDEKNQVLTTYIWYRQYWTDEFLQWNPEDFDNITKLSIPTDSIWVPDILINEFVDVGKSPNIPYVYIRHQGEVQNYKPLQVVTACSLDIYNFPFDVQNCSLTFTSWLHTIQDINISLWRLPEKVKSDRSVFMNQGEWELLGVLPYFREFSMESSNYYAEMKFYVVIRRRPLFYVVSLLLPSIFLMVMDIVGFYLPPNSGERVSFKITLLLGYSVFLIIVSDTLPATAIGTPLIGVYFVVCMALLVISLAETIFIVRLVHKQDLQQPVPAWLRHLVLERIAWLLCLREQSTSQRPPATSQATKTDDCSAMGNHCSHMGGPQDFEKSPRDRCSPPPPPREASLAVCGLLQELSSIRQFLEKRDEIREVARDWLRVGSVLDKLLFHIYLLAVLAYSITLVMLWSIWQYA

Chain of Sodium-dependent noradrenaline transporter (Homo sapiens) (P23975 whole entry): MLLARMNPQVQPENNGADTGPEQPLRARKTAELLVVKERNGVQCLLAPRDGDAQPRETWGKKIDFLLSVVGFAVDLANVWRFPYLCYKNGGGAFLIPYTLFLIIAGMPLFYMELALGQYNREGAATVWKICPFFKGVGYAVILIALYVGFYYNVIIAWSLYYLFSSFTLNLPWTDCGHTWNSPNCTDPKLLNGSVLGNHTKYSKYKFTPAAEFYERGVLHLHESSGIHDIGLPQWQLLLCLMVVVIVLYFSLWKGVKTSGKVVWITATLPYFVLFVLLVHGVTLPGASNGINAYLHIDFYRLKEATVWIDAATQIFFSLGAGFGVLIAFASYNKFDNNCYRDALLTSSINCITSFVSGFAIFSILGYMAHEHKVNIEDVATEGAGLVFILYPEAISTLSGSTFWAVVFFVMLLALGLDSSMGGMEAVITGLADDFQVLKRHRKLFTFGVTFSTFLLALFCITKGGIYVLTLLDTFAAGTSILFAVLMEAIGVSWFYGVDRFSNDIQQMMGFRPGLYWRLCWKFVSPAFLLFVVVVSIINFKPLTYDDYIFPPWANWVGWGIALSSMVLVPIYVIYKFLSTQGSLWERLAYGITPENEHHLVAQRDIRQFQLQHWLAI
Chain of Muscarinic acetylcholine receptor M3 (Homo sapiens) (P20309 whole entry, looked up): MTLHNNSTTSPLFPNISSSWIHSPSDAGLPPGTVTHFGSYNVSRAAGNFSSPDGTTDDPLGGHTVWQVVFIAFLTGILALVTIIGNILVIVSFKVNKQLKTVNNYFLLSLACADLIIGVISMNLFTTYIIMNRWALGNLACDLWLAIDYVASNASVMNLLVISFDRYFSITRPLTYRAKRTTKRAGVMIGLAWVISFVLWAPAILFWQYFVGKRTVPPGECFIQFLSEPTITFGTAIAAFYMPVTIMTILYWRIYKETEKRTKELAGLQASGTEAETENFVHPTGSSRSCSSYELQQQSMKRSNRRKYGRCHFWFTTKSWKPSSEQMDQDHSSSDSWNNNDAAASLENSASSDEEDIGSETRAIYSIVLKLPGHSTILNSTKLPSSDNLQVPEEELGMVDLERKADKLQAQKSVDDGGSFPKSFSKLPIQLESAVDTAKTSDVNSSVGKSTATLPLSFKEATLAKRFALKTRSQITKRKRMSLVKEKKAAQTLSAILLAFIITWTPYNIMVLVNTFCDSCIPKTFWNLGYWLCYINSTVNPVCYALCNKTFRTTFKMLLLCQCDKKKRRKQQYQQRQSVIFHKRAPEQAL
Chain of Beta-1 adrenergic receptor (Homo sapiens) (P08588 whole entry, looked up): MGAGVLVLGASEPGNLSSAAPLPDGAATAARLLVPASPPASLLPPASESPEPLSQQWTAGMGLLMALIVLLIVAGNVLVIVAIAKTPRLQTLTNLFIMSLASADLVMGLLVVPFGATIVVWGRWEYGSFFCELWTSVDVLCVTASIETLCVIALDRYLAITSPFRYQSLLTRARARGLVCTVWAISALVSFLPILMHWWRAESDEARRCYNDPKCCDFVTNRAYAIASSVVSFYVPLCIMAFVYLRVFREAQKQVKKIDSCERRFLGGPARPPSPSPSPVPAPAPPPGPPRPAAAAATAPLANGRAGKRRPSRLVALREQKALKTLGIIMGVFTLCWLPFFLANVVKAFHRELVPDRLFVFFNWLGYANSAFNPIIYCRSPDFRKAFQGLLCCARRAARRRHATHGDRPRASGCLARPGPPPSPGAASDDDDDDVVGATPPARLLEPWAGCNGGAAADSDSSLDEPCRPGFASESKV
Chain of Histamine H4 receptor (Homo sapiens) (Q9H3N8 whole entry): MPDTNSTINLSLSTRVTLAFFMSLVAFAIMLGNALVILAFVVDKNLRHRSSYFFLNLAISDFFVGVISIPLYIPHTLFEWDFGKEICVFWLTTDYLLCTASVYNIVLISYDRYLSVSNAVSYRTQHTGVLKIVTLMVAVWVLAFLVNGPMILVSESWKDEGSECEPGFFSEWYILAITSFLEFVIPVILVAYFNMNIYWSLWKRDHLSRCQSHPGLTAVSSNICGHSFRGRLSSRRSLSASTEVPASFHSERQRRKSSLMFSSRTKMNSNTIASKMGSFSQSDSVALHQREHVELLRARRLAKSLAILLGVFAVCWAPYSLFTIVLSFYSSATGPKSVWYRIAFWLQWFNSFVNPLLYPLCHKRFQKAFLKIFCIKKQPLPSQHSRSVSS
Chain of Beta-2 adrenergic receptor (Homo sapiens) (P07550 whole entry, looked up): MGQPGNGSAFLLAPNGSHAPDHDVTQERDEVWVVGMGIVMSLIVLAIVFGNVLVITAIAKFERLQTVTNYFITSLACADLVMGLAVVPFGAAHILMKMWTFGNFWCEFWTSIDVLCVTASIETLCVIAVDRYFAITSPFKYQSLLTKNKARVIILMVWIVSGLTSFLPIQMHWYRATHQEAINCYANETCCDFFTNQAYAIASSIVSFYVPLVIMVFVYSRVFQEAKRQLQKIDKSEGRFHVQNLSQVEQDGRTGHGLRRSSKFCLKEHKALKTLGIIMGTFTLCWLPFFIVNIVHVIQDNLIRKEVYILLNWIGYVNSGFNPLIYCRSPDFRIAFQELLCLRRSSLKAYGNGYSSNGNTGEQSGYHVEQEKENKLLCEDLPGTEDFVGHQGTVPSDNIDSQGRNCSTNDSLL
Chain of Delta-type opioid receptor (Homo sapiens) (P41143 whole entry): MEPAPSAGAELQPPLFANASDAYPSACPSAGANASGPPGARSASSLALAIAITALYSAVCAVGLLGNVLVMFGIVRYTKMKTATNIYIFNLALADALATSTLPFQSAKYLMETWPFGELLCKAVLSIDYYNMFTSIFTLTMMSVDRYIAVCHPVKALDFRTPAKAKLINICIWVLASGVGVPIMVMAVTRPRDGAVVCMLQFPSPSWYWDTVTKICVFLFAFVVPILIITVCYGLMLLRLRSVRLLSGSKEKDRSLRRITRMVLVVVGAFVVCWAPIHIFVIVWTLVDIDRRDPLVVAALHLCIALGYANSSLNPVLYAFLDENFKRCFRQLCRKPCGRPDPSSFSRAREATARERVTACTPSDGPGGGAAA
Chain of Translocator protein (Homo sapiens) (P30536 whole entry): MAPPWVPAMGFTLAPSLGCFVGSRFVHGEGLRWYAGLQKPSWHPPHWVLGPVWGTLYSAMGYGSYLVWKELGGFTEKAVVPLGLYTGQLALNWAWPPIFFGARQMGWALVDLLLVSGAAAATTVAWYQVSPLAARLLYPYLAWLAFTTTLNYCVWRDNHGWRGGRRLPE

| Compound | inhibition [1] [%] | inhibition [2] [%] | inhibition [3] [%] | inhibition [4] [%] | inhibition [5] [%] | inhibition [6] [%] | inhibition [7] [%] | inhibition [8] [%] | inhibition [9] [%] | inhibition [10] [%] | inhibition [11] [%] | inhibition [12] [%] |
| --- | --- | --- | --- | --- | --- | --- | --- | --- | --- | --- | --- | --- |
| N#Cc1c(O)nc(SCc2cccc(F)c2F)nc1C1CC1 | -4.74 | 5.27 | 5.91 | -1.64 | -6.93 | 40.4 | 7.91 | 28.6 | 4.02 | 5.94 | – | – |
| N#Cc1ccc(NC(=O)Nc2ccccc2Br)c2nn[nH]c12 | 13.3 | – | 4.08 | 35.6 | -2.75 | 53.9 | 16.4 | 26.6 | 25.3 | -2.94 | 6.48 | 4.92 |
| N#Cc1c[nH]c2c(C(=O)N3CCN(CCc4ccc(F)cc4)CC3)cccc12 | 81.9 | – | 38.2 | 71.6 | -6.2 | – | – | 35.6 | -2.67 | 60.9 | -9.78 | -8.41 |
| CN1C[C@H](C(=O)N[C@]2(C)O[C@@]3(O)[C@@H]4CCCN4C(=O)[C@H](Cc4ccccc4)N3C2=O)C[C@@H]2c3cccc4[nH]cc(c34)C[C@H]21 | 100 | – | 115 | 21.2 | – | 19 | 14.2 | 17.8 | 3.01 | 18.1 | 7.31 | 1.05 |
| O=C(O)Cn1c(C(=O)Nc2nc(-c3ccccc3Cl)cs2)cc2ccccc21 | -9.74 | 0.53 | 0.91 | – | 2.63 | 20.4 | 19 | 30.9 | 13.6 | -7.21 | – | – |
| FC(F)(F)c1cccc(-c2noc(-c3cc(-c4ccccc4)c(C(F)(F)F)s3)n2)c1 | -0.65 | -5.11 | -0.68 | – | – | 5.27 | – | -3.82 | – | – | -4.18 | 0.39 |
| CO[C@@H]1COCC[C@@H]1N[C@@H]1CC[C@@](C(=O)N2CCc3ncc(C(F)(F)F)cc3C2)(C(C)C)C1 | -3.53 | 6.08 | 3.2 | – | – | 11.4 | -2.34 | 28.2 | 2.39 | -6.91 | -4.29 | – |
| O=C(O)C1CN(Cc2ccc(OCc3ccc(Cl)c(Cl)c3)cc2)C1 | -0.79 | -5.25 | 10 | – | 35.4 | 3.35 | – | -7.03 | -3.72 | – | -2.07 | -8.5 |
| OC[C@H]1O[C@@H](n2cnc3c(NC4CCCC4)ncnc32)[C@H](O)[C@@H]1O | 34 | -0.28 | – | 28.3 | 11 | – | -3.21 | 1.3 | – | -3.65 | – | 3.29 |
| CC1(C)SSC(C)(C)[C@@H](NC(=O)[C@@H](N)Cc2ccc(O)cc2)C(=O)NCC(=O)N[C@@H](Cc2ccccc2)C(=O)N[C@H]1C(=O)O | 49 | -1.79 | -6.75 | 3.43 | 6.52 | – | – | -5.41 | -8.56 | -0.03 | – | – |
| COC(=O)[C@H]1[C@H]2C[C@H]3c4[nH]c5ccccc5c4CCN3C[C@H]2CC[C@@H]1O | 40.2 | – | 98.7 | 43.4 | – | 7.14 | -0.55 | 6.36 | 8.74 | -6.47 | 4.29 | -2.94 |
| Cc1nc(-c2ccc(C(F)(F)F)cc2)sc1COc1ccc([C@H](CC(=O)O)c2ccon2)cc1 | – | 2.18 | 2.28 | 14.3 | -6.48 | 11.6 | 23 | 24.6 | -1.65 | 7.87 | – | – |
| Cc1cc(C)c(N)c(C#Cc2cccc(F)c2)n1 | -9.97 | -6.32 | 13.5 | 65.2 | 12.9 | 39.6 | -1.56 | -7.35 | 8.38 | 19.8 | – | -2.76 |
| O=C1N/C(=N/c2ccccc2F)S/C1=C\c1ccc(C(=O)O)cc1 | 79.2 | -5.5 | 2.98 | 9.3 | -7.72 | 4.31 | -1.84 | 9.47 | -4.83 | 6.54 | – | -3.21 |
| FC(F)(F)c1c(N2CCC(c3ccccc3)CC2)ccn2c(CC3CC3)nnc12 | – | -8.34 | 1.28 | 31.6 | – | 36.9 | – | 22.1 | -1.74 | -5.09 | -6.28 | – |
| CC1=C2C[C@H]3[C@@H](CC=C4C[C@@H](O)CC[C@@]43C)[C@@H]2CC[C@]12O[C@@H]1C[C@H](C)CN[C@H]1[C@H]2C | – | -6.3 | – | – | – | 13.5 | -0.87 | -3.27 | -2.19 | 5.22 | – | – |
| O=C(O)C1CN(Cc2ccc(-c3nc4cc(Cc5ccccc5F)ccc4s3)c(F)c2)C1 | -6.1 | -1.67 | 20.6 | 20.8 | – | 22.3 | -3.98 | 22.9 | -0.17 | 66.8 | – | -3.55 |
